Experimental data reported in US10450281B1, “Compounds and methods for treating cancer” (Dana-Farber Cancer Institute, Inc., priority 2014, dated 2019).

Columns and labels:
EGFR = EGFR degradation immunoblot in NSCLC line H1650 (FIG. 3); format: cell-based, human; settings: H1650 cells, 24 h
Method: Specifically, the NSCLC line H1650, which is driven by a constitutively-activated EGFR, was treated with the indicated concentrations of the PAN-DUB inhibitor SJB-019A and/or the kinase inhibitor Gefitinib. After 24 hours, cells were lysed and the total cellular proteins were electrophoresed by standard PAGE methods. Proteins were immunoblotted and probed with commercially available polyclonal antisera to EGFR or Tubulin. […] Specifically, the NSCLC line H1650, which is driven by a constitutively-activated EGFR, was treated with the indicated concentrations of the PAN-DUB inhibitor SJB-019A and/or the kinase inhibitor Gefitinib. After 24 hours, cells were lysed and the total cellular proteins were electrophoresed by standard PAGE methods. Proteins were immunoblotted and probed with commercially available polyclonal antisera to EGFR or Tubulin. Conclusion: the PAN-DUB inhibitor promotes the degradation of the EGFR, at least in part, by inhibition of USP8 which is expressed in these cells. The dose of the inhibitor that reduce the viability of the NSCLC (less than 0.5 μm, see FIG. 2) correlates with the amount of drug required to degrade EGFR (between 0.2-0.5 μm).

AR = AR degradation immunoblot in prostate cancer cell line (FIG. 9); format: cell-based, human; settings: 24 h
Method: (§1) Specifically, a human prostate cancer cell line was exposed to the indicated concentrations of PAN-DUB inhibitor, 019A, for 24 hours. Thereafter, cells were lysed, and total cellular proteins were electrophoresed and immunoblotted. Proteins were probed with anti-USP12, anti-AR, and anti-Tubulin antibodies. […] Specifically, a human prostate cancer cell line was exposed to the indicated concentrations of PAN-DUB inhibitor, 019A, for 24 hours. Thereafter, cells were lysed, and total cellular proteins were electrophoresed and immunoblotted. Proteins were probed with anti-USP12, anti-AR, and anti-Tubulin antibodies. Conclusion: the PAN-DUB inhibitor promotes the dose-dependent degradation of AR, consistent with the dose-dependent killing of the cells by the drug. The dose of the inhibitor that reduce the viability of the prostate cancer cells (about 0.5 to 0.8 μm, see FIG. 5 and FIG. 7) correlates with the amount of drug required to degrade AR (about 0.6 to 0.8 μm).

[1] = test system: human prostate cancer cell line; assay: Prostate cancer cell viability after 24 h incubation (FIG. 5, FIG. 7); format: cell-based
Method: A human prostate cancer cell line was incubated with the indicated concentration of DUB inhibitor for 24 hours, and viability was then measured. […] A human prostate cancer cell line was incubated with the indicated concentration of DUB inhibitor for 24 hours, and viability was then measured. […] A human prostate cancer cell line was incubated with the indicated concentration of DUB inhibitor for 24 hours, and viability was then measured.

Cyclin D1 = Cyclin D1 degradation immunoblot in prostate cancer cell line (FIG. 6, FIG. 8); format: cell-based, human; settings: 24 h
Method: (§2) Specifically, a human prostate cancer cell line was exposed to the indicated concentrations of PAN-DUB inhibitor, 019A, for 24 hours. Thereafter, cells were lysed, and total cellular proteins were electrophoresed and immunoblotted. Proteins were probed with anti-USP2, anti-Cyclin D1, and anti-vinculin. […] Specifically, a human prostate cancer cell line was exposed to the indicated concentrations of PAN-DUB inhibitor, 019A, for 24 hours. Thereafter, cells were lysed, and total cellular proteins were electrophoresed and immunoblotted. Proteins were probed with anti-USP2, anti-Cyclin D1, and anti-tubulin. […] Specifically, a human prostate cancer cell line was exposed to the indicated concentrations of PAN-DUB inhibitor, 019A, for 24 hours. Thereafter, cells were lysed, and total cellular proteins were electrophoresed and immunoblotted. Proteins were probed with anti-USP2, anti-Cyclin D1, and anti-Tubulin antibodies or anti-vinculin antibodies. Conclusion: the PAN-DUB inhibitor promotes the dose-dependent degradation of Cyclin D1, consistent with the dose-dependent killing of the cells by the drug. The dose of the inhibitor that reduce the viability of the prostate cancer cells (about 0.5 to 0.8 μm, see FIG. 5 and FIG. 7) correlates with the amount of drug required to degrade cyclin D1 (about 0.5 to 0.8 μm).

USP2a = target: T1, USP2a (Homo sapiens, UniProt O75604); assay: USP2a expression immunoblot in prostate cancer cell line (FIG. 6, FIG. 8); format: cell-based; settings: 24 h
T1 construct: endogenous in cells
T1 sequence (O75604 1-605): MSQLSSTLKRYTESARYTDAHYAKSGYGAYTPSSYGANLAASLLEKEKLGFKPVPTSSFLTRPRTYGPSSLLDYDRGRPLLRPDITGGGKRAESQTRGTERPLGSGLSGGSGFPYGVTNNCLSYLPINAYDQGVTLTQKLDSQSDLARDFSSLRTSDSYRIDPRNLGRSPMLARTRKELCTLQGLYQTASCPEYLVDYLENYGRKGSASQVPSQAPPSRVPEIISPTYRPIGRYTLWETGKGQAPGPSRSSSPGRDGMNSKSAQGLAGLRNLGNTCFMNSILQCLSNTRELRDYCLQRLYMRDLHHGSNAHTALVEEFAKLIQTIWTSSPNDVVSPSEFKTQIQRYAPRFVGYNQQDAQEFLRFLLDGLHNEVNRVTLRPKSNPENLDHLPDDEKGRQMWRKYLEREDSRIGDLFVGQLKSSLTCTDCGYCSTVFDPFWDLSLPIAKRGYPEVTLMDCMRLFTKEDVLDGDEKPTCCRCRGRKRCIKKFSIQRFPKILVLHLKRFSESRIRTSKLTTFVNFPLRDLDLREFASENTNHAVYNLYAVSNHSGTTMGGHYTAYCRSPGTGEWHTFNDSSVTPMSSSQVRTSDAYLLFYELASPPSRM
Method: as §2

[2] = test system: human non-small cell lung cancer (NSCLC) lines; assay: NSCLC cell line viability after 24 h incubation (FIG. 2); format: cell-based
Method: The indicated human non-small cell lung cancer (NSCLC) lines were incubated with the indicated concentrations of the DUB inhibitor (019A) for twenty-four hours, and cell viability was measured. […] The indicated human non-small cell lung cancer (NSCLC) lines were incubated with the indicated concentrations of the DUB inhibitor (019A) for twenty-four hours, and cell viability was measured. […] Specifically, the NSCLC line H1650, which is driven by a constitutively-activated EGFR, was treated with the indicated concentrations of the PAN-DUB inhibitor SJB-019A and/or the kinase inhibitor Gefitinib. After 24 hours, cells were lysed and the total cellular proteins were electrophoresed by standard PAGE methods. Proteins were immunoblotted and probed with commercially available polyclonal antisera to EGFR or Tubulin. Conclusion: the PAN-DUB inhibitor promotes the degradation of the EGFR, at least in part, by inhibition of USP8 which is expressed in these cells. The dose of the inhibitor that reduce the viability of the NSCLC (less than 0.5 μm, see FIG. 2) correlates with the amount of drug required to degrade EGFR (between 0.2-0.5 μm).

USP12 = target: T2, USP12 (Homo sapiens, UniProt O75317); assay: USP12 protein immunoblot in prostate cancer cell line (FIG. 9); format: cell-based; settings: 24 h
T2 construct: cells were lysed, and total cellular proteins were electrophoresed and immunoblotted; endogenous in cells
T2 sequence (O75317 whole entry): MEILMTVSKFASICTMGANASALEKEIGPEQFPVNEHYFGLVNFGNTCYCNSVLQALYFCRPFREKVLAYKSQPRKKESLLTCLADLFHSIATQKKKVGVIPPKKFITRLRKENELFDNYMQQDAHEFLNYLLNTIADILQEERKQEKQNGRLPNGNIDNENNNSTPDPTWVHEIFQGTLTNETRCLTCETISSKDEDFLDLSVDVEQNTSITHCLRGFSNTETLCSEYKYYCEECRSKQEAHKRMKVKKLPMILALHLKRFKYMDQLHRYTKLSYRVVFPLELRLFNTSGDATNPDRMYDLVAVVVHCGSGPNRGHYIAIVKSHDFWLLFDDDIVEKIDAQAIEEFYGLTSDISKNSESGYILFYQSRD
T2 sequence (Q8TAF3 whole entry partner): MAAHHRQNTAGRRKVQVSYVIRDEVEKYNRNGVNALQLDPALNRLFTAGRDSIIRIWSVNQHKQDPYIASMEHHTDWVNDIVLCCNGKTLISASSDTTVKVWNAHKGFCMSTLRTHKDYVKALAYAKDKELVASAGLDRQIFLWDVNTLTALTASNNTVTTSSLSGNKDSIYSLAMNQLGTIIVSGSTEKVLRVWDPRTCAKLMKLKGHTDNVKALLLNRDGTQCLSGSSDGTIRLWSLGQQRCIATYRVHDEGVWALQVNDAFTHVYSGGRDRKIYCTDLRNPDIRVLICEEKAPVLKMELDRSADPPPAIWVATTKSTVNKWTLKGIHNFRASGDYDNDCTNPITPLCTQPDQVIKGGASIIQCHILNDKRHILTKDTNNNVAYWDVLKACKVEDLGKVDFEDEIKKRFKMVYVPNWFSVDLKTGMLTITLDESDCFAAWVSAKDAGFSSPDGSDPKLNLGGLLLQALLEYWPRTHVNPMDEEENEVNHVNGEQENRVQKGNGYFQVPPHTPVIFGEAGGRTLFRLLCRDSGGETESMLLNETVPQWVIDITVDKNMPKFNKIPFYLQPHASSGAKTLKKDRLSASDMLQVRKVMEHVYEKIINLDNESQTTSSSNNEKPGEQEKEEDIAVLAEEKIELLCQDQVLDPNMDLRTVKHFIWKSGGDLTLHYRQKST
T2 sequence (Q8TBZ3 whole entry partner): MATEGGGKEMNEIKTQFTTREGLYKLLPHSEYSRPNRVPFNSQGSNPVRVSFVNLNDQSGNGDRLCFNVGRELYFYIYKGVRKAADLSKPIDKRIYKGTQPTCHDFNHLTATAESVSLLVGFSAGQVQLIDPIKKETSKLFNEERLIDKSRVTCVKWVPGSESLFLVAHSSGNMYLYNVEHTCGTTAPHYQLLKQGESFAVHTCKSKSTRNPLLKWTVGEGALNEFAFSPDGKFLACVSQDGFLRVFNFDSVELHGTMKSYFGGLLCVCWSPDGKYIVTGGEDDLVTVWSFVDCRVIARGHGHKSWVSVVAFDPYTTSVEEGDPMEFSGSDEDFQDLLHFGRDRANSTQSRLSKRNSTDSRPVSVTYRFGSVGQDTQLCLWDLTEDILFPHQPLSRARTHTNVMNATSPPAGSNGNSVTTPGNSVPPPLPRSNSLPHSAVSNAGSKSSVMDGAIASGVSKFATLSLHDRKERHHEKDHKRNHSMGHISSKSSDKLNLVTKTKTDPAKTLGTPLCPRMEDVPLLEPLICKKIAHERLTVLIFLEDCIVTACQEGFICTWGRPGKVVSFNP
Method: as §1

[3] = Pharmacokinetics of 019A in mice (FIG. 1); format: in vivo; settings: IV, IP, or oral (PO) administration
USP8 = target: T3, USP8 (Homo sapiens, UniProt P40818); assay: Ub-VS labelling gel shift in K562 cell lysate, anti-USP8 western blot (FIG. 4); format: biochemical; settings: dose dependent
T3 construct: endogenous in cells; host or cells: K562 human leukemia cells (lysate)
T3 sequence (P40818 1-1118): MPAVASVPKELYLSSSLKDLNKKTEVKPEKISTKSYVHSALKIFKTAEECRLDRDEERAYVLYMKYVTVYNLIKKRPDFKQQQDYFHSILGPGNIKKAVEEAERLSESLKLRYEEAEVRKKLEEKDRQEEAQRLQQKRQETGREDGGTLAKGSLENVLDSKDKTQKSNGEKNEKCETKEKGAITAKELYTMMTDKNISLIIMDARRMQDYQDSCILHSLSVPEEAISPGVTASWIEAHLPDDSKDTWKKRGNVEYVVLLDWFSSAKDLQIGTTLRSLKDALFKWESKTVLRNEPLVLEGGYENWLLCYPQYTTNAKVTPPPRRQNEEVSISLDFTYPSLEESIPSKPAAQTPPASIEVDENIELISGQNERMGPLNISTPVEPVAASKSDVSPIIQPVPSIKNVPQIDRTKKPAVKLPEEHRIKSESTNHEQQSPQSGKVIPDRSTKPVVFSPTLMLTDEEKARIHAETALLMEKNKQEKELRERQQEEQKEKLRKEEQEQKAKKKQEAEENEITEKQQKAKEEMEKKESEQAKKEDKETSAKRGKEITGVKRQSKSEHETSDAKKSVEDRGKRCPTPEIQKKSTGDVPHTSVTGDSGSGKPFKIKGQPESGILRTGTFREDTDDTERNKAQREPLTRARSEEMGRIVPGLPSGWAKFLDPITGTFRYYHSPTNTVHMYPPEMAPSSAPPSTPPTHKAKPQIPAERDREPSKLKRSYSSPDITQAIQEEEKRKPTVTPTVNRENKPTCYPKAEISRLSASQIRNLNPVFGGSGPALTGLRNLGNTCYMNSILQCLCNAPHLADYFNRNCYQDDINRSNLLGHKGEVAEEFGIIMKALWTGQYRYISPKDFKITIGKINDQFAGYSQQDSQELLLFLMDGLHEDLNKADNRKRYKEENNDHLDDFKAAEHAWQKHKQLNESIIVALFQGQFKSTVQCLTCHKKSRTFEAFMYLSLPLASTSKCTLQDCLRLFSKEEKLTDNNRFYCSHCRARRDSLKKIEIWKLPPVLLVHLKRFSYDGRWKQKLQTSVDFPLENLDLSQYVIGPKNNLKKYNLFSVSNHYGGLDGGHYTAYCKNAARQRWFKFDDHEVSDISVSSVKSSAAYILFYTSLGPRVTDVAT
Method: (§3) Human leukemia cells (K652 cell line) express USP8, USP1, and other DUBs. In this experiment, K562 cells were lysed, and total cellular proteins were incubated with the affinity reagent, Ub-VS (vinyl sulfone) which covalently binds to active USPs. As indicated, the addition of Ub-VS causes an upward gel shift of active USP8 and active USP1 (lane 2). […] A western blot is shown, immunoblotted with either anti-USP8, anti-USP1, or anti-HA.
as §3, with “anti-HA antibodies.” for “anti-HA.”

USP1 = target: T4, USP1 (Homo sapiens, UniProt O94782); assay: Ub-VS labelling gel shift in K562 cell lysate, anti-USP1 western blot (FIG. 4); format: biochemical; settings: dose dependent
T4 construct: endogenous in cells; host or cells: K562 human leukemia cells (lysate)
T4 sequence (O94782 whole entry): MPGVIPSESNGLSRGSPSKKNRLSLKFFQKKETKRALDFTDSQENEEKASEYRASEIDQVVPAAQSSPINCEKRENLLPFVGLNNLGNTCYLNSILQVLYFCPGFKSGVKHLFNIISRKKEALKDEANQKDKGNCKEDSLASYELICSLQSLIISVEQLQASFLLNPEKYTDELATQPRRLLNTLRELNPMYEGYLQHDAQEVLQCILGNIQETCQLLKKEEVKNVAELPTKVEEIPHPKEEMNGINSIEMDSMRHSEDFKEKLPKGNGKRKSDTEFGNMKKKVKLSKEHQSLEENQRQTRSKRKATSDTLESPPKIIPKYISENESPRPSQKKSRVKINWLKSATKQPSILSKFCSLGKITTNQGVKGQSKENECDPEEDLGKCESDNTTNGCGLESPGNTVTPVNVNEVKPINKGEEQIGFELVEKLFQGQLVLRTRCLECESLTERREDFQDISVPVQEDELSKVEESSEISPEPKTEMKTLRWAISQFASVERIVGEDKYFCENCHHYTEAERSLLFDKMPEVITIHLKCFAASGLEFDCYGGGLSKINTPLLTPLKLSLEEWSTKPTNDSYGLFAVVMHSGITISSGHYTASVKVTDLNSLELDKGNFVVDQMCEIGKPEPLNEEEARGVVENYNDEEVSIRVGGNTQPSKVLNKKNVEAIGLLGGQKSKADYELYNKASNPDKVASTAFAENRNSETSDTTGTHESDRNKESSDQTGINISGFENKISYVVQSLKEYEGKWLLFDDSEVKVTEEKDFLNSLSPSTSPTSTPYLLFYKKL
T4 sequence (Q8TAF3 whole entry partner): as the sequence (Q8TAF3 whole entry partner) above
Method: as §3
as §3, with “anti-HA antibodies.” for “anti-HA.”

Molecule	amount of drug required to degrade EGFR (EGFR)	amount of drug required to degrade AR (AR)	dose of the inhibitor that reduces the viability of the prostate cancer cells [1]	drug concentration range for killing of prostate cancer cells [1]	amount of drug required to degrade cyclin D1 (Cyclin D1)	effect on USP2a expression (USP2a)	dose of the inhibitor that reduces the viability of the NSCLC ([2]; 24 h incubation)	selective killing (cytotoxicity) of lung cancer cell lines ([2]; cell lines which express activated EGF-receptor, 24 h)	effect on USP12 protein (USP12)	serum concentrations after administration [3]	inhibition of Ub-VS binding to active USP8 (USP8)	inhibition of Ub-VS binding to active USP1 (USP1)
O=C1c2ccccc2C(=O)c2oc(-c3cccnc3)nc21 [019A]	0.2-0.5 μm	0.6 to 0.8 μm	0.5 to 0.8 μm	submicromolar range	0.5 to 0.8 μm	does not affect USP2a expression	less than 0.5 μm	selective killing (cytotoxicity) for lung cancer cell lines which express activated EGF-receptor	degrades USP12 protein	inhibitory serum concentrations of 019A can be achieved		
Ub-aldehyde											blocks the upward shift	blocks the upward shift
